Measured values as given in EP1905824A1, “A […] AND A METHOD FOR CELL […]” (Olympus Corporation, priority 2005, dated 2006).

Assays:
Format in all cases: cell-based, human
[1] = tested on: breast cancer tissue-derived adipose stromal cell and ERE-GFP-E10 cell; test: Co-culture of breast cancer tissue-derived adipose stromal cell and ERE-GFP-E10, detection of estrogen signal; design: dose or concentration left out as unconfirmed; details: testosterone, four days co-culture; compared with no addition of androgen; three breast cancer cases
ERE-GFP-E10 cell line [2] = test: Estrogen signal response assessment (GFP expression, fluorescence microscope / flow cytometer); details: E2 10 nM, two days; compared with E2-untreated (low GFP expression level)
[3] = tested on: cell line in which only the pd2EGFP-1 vector having no ERE was stably introduced (pdE2-GFP-4); test: Estrogen signal response assessment (GFP expression), control cell line without ERE; details: E2 10 nM, two days; regardless of E2-treated/untreated
[4] = tested on: MCF7 cell lines (clones) in which the ERE-GFP reporter gene having a sable GFP as the reporter was stably introduced; test: GFP protein induction with/without estrogen (E2), stable-GFP reporter clones; details: E2 10 nM, two days
ERE-GFP-E10 cell line [5] = test: MTT assay for living cell counts after addition of E2; details: E2 0 to 300 pM; four days; absorbance at 560 nm
ERE-GFP-E10 cell line [6] = test: GFP expressing cell counting after addition of E2
[7] = E2 3 pM or 1 nM, Day 1 to Day 4, regardless of the amount of E2 added

| Structure (SMILES) | GFP positive cell rate in the ERE-GFP-E10 cell [1] | GFP expression level when E2-treated (ERE-GFP-E10 cell line [2]) | GFP expression [3] | GFP expression positive cell rate (%) E2-added group ([4]; clone #16, E2-free group 85) | GFP expression positive cell rate (%) E2-added group ([4]; clone #19, E2-free group 32) | GFP expression positive cell rate (%) E2-added group ([4]; clone #21, E2-free group 5) | GFP expression positive cell rate (%) E2-added group ([4]; clone #28, E2-free group 37) | GFP expression positive cell rate (%) E2-added group ([4]; clone #29, E2-free group 77) | GFP expression positive cell rate (%) E2-added group ([4]; clone #37, E2-free group 83) | living cell count (ERE-GFP-E10 cell line [5]) | E2 concentration at which GFP expression induction was maximized (ERE-GFP-E10 cell line [6]; E2 0, 1, 3, 10, 30, 100, 300 pM, four days) | day from which GFP expression was observed after the addition of E2 (ERE-GFP-E10 cell line [6]; [7]) | day on which GFP expression positive cell count was maximized (ERE-GFP-E10 cell line [6]; [7]) | minimal effective concentration (ERE-GFP-E10 cell line [6]; Homo sapiens, 96 h, E2 0, 1, 3, 10, 30, 100, 300 pM, four days, read-out: E2 concentration at which a significant level of GFP expression induction was detected) |
| --- | --- | --- | --- | --- | --- | --- | --- | --- | --- | --- | --- | --- | --- | --- |
| C[C@]12CC[C@H]3[C@@H](CCC4=CC(=O)CC[C@@]43C)[C@@H]1CC[C@@H]2O [testosterone] | significantly increased |  |  |  |  |  |  |  |  |  |  |  |  |  |
| C[C@]12CC[C@@H]3c4ccc(O)cc4CC[C@H]3[C@@H]1CC[C@@H]2O [E2, 17 β estradiol] |  | GFP well induced, having a high expression level | no GFP expression | 88% | 73% | 8% | 41% | 83% | 84% | increased dependently on the added E2 concentration | 30 pM | 1 days | 2 days | 3e-06 µM |
